In brackets after ≈: the same amount, converted by molar mass. Like-named read-outs stand apart in the source and are kept apart here.

We go through five compounds from patent EP0454058B1, “Use of anthraquinone derivatives in the prophylaxis and treatment of viral diseases” (LOMAPHARM Rudolf Lohmann GmbH KG Pharmazeutische Fabrik, priority 1990, dated 1991).

Holding throughout (assay type): cell-based
For data set [1], the system named is Herpes simplex-Viren. The experiment in a line: Dye test (Farbtest, crystal violet): virustatic effect in virus-infected cell cultures. The settings on record: for Extinktion bei 546 nm Hela-Zellen mit Herpes-Virus: virus control 0,144, cell control 0,648. An excerpt:
(§1) Der Farbtest, wie von Armstrong, 1971 (5) beschrieben, beruht darauf, daß die durch die Viren zerstörten Zellen nicht mehr gefärbt werden können. Je höher der Anteil an intakten Zellen nach der Inkubation mit dem jeweiligen Virus durch die virustatische Wirkung einer Substanz ist, um so mehr Farbstoff wird gebunden. Der Farbstoff läßt sich aus den gefärbten Zellen extrahieren und seine Menge kann in einem Photometer, z. B. bei Verwendung von Kristallviolett bei 546 nm, gemessen werden. Damit erlaubt der Test meßbare und reproduzierbare Angaben sowohl über die virustatische, wie auch durch Parallelversuche mit Zellkulturen ohne Viren über die cytotoxische Wirkung von Substanzen.
(§2) Durchführung: 10 mg der Testsubstanz wurden in 10 ml Ethylalkohol gelöst. Unter Verwendung des Mediums für die Zellkultur wurde eine Verdünnungsreihe mit Konzentrationen von 1,56 µg/ml bis 25 µg/ml Testsubstanz eingestellt. Diese Lösungen werden auf 24 Stunden alte MK2-, HeLa-, Rita-Zellen oder andere geeignete Zellen gegeben, nachdem diese vorher 45 Minuten zur Infektion mit einer Suspension von Viren überschichtet worden waren. Zur Prüfung der Cytotoxizität werden Parallelansätze ohne Viruszugabe analog mit den verschiedenen Verdünnungsstufen der Prüfsubstanz überschichtet. Die Versuchsansätze mit Virus und Testsubstanz bzw. nur der Testsubstanz werden 72 Stunden bei 37 °C bebrütet. Anschließend werden die Zellen fixiert und für 15 Minuten mit Kristallviolettlösung gefärbt. Nach Spülen mit Wasser wird der an die Zellen gebundene Farbstoff mit Ethanol extrahiert und in einem Photometer die Extinktion bei 546 nm (Absorption für Kristallviolett) gemessen.
Zur Auswertung werden die Extinktionen und auch die Konzentration mit einem Zellschutz von 50 % berechnet.
Falls die Testsubstanz keine wesentlichen cytotoxischen Eigenschaft besitzt, kann die antivirale Schutzwirkung nach nach folgender Formel in Prozent berechnet werden: (E3 - E2)/(E1 - E2)x 100 [formula] E1 = Extinktion der Zellkontrolle E2 = Extinktion der Viruskontrolle E3 = Extinktion der Versuchsansätze mit Virus und Alizarin

Data set [2] deals with HHV 6 (Human herpes-Virus Typ 6). The experiment in a line: Virus replication in human lymphocyte cultures, passages in presence of substance. To be noted: 10 µg/ml, after three passages. An excerpt:
In weiteren Versuchen wurde die Wirkung von Alizarin auf die Vermehrung von HHV 6 (Human herpes-Virus Typ 6) untersucht. Diese Viren lassen sich aus dem Blut von immunsupprimierten Patienten mit Leukämie, Lymphomen oder Aids sowie von Kindern mit Roseola infantum isolieren.
Die Testung erfolgte in menschlichen Lymphocytenkulturen.

The test system of data set [3] is Herpes simplex-Viren. The experiment in a line: Plaque inhibition test (Plaquehemmungstest, agar diffusion test). The settings on record: read-out: Hemmhofdurchmesser (mm). An excerpt: Der Plaquehemmungstest (Agardiffusionstest) wird nach der Methode von E. C. Herrmann et al., 1960 (6) durchgeführt. Auch bei diesem Test werden virusinfizierte tierische Zellkulturen verwendet. In diesem Fall wird in Petrischalen durch ein mit Hilfe von Agar verfestigtes Medium das unkontrollierte Ausbreiten der Viren verhindert. Es kommt zu einer lokal begrenzten Zerstörung der Zellen, die nach einer Färbung als Löcher im Zellrasen erkennbar ist. Die Testsubstanzen werden auf Filterpapierblättchen aufgetragen und auf das feste Medium aufgelegt. In einem Bereich um diese Blättchen werden durch die virustatische Wirkung der Testsubstanz die Zellen geschützt und es entstehen so kreisförmige Hemmzonen. Die Größe der Hemmzone kann als Maß für die virustatische Wirksamkeit ausgewertet werden.
Durchführung: Ein Monolayer von MK2-, HeLa-, Rita-Zellen oder einer anderen geeigneten Zellinie wird in einer Petrischale mit Viren infiziert, so daß eine große Zahl von einzelnen Plaques entsteht. Nach einer Bindung von 45 Minuten bei Zimmertemperatur wird der Zellrasen einmal mit phosphatgepufferter Kochsalzlösung gewaschen und mit einer Agar-Oberschicht versehen. Auf diese Agarschicht werden Filterpapierblättchen (10 mm Durchmesser) gelegt, die mit einer Lösung der Testsubstanz getränkt sind. Nach 48 bis 72 Stunden Bebrütung bei 37 °C in CO2-Atmosphäre (5 %) wird eine zweite Oberschicht darübergegeben, die den Vitalfarbstoff Tetrazoliumchlorid enthält. Nach weiteren 24 Stunden Bebrütung wird der Hemmhofdurchmesser, unterteilt in "toxische Zone" und "therapeutische Zone", in mm ausgemessen.
For orientation: A growth-free zone around the sample is the usual read-out of agar diffusion tests.

The test system of another data set is Cytomegalie-Viren. The experiment in a line: Plaque reduction test (Plaquereduktionstest) in human foreskin fibroblasts. To be noted: Fibroblast, plaque count versus virus control, read-out: Hemmung (%). The text has this:
Für die Prüfung der Wirksamkeit gegenüber Cytomegalie-Viren (CMV) werden mit diesen Viren infizierte menschliche Vorhautfibroblasten eingesetzt. Nach der Inkubation werden die entstandenen Plaques angefärbt und ausgezählt. Zur Auswertung wird die Plaquezahl unter dem Einfluß einer definierten Substanzmenge mit der Viruskontrolle verglichen.
Mit einer ähnlichen Versuchsanordnung wie im Plaquehemmungstest kann die Wirkung des Alizarins gegen Cytomegalie-Viren bestimmt werden (siehe Plaquereduktionstest, Methode 3). Die Untersuchung für das Cytomegalie-Virus in einer Zellinie von menschlichen Vorhautfibroblasten ergab die in Tabelle II angegebenen Werte für die Hemmung im Vergleich zur Viruskontrolle. Zur Auswertung wurden hier die gebildeten Plaques gezählt und im Vergleich zur Viruskontrolle ausgewertet (siehe Tabelle II). Tabelle II
Background: Plaque reduction counts the foci of infection that form in a cell layer.

The test system of another data set is Hela-Zellen. The experiment in a line: Dye test (Farbtest), parallel runs without virus: cytotoxicity. To be noted: for Extinktion bei 546 nm Hela-Zellen: cells without virus, 72 h.
From the text: as §1, §2

Where [4] appears, read: Substanzmenge 10 µg/ml pro Testblättchen, Rita-Zellen.
Setting [5] is: Substanzmenge 20 µg/ml pro Testblättchen, Rita-Zellen.
Setting [6] is: Substanzmenge 40 µg/ml pro Testblättchen, Rita-Zellen.

With `O=C1c2ccccc2C(=O)c2c1ccc(O)c2O` [Alizarin, 1,2-Dihydroxy-9,10-anthracendion], the “Extinktion bei 546 nm Hela-Zellen mit Herpes-Virus” value with Herpes simplex-Viren [1] (25 µg/ml, 72 h) is recorded as 0,235; with Herpes simplex-Viren [1] (3,125 µg/ml, 72 h), 0,329; with Herpes simplex-Viren [1] (1,56 µg/ml, 72 h), 0,206; in the data set on Herpes simplex-Viren [1] (6,25 µg/ml, 72 h), 0,403; in the data set with Herpes simplex-Viren [1] (12,5 µg/ml, 72 h), 0,338. For the same compound, in the data set on Herpes simplex-Viren [1] (72 h, 3.125 µg/mL, Hela-Zellkulturen, read-out: Zellschutz (%)), the inhibition at 3.125 µg/mL stood at 37%. In the data set with Herpes simplex-Viren [1] (72 h, 25 µg/ml, Hela-Zellkulturen, read-out: Zellschutz (%)), the inhibition at 25 µg/mL stood at 18%. For the same compound, the inhibition at 1.56 µg/mL in the data set on Herpes simplex-Viren [1] (72 h, 1,56 µg/ml, Hela-Zellkulturen, read-out: Zellschutz (%)) was 12%. In addition, the inhibition at 6.25 µg/mL in the data set on Herpes simplex-Viren [1] (72 h, 6,25 µg/ml, Hela-Zellkulturen, read-out: Zellschutz (%)) turned out to be 51%. Besides, the inhibition at 12.5 µg/mL in the data set on Herpes simplex-Viren [1] (72 h, 12,5 µg/ml, Hela-Zellkulturen, read-out: Zellschutz (%)) turned out to be 38%. The EC50 with Herpes simplex-Viren [1] (experiment of Tabelle I a, read-out: Konzentration, die einen Zellschutz von 50 % bewirkt) stood at 5.96 µg/mL (≈ 24.8 µM). Also, the IC50 in the data set with Herpes simplex-Viren [1] (in presence of 10 % Serum, read-out: 50 % Hemmwert) worked out at 11.3 µg/mL; in the data set with Herpes simplex-Viren [1] (mean of four experiments, read-out: Mittelwert für eine 50 %ige Hemmung der Virusvermehrung), 4.87 µg/mL (≈ 20.3 µM). Moreover, the “Virus nachweisbar in den Zellen” value in data set [2] was “kein Virus mehr nachweisbar”. In addition, the zone of inhibition at 10 µg/mL in the data set with Herpes simplex-Viren [3] amounted to 14 mm. The zone of inhibition at 20 µg/mL with Herpes simplex-Viren [3] was 18 mm. Besides, in the data set on Herpes simplex-Viren [3], the zone of inhibition at 40 µg/mL came out at 20 mm. In addition, the inhibition at 5 µg/mL in the data set on Cytomegalie-Viren (5 µg/ml) stood at 10%. Besides, in the data set on Cytomegalie-Viren (10 µg/ml), the inhibition at 10 µg/mL is 60%. Further, in the data set on Cytomegalie-Viren (15 µg/ml), the inhibition at 15 µg/mL was 100%. The inhibition at 20 µg/mL in the data set with Cytomegalie-Viren (20 µg/ml) turned out to be 100%. Also, the “Extinktion bei 546 nm Hela-Zellen” value is listed as 0,328 in the data set on Hela-Zellen (25 µg/ml); 0,693 in the data set with Hela-Zellen (3,125 µg/ml); 0,655 in the data set with Hela-Zellen (1,56 µg/ml); 0,634 in the data set with Hela-Zellen (6,25 µg/ml); 0,510 in the data set on Hela-Zellen (12,5 µg/ml). Further, in the data set with Hela-Zellen (at the higher concentrations of Tabelle I a / I b), the “cytotoxische Wirkung” value is on record as “schwache cytotoxische Wirkung”.
On to `O=C1c2ccccc2C(=O)c2c1cc(S(=O)(=O)O)c(O)c2O` [Alizarinsulfonsäure (2), 9,10-Dihydro-3,4-dihydroxy-9,10-dioxo-2-anthracensulfonsäure.Mononatriumsalz], for which the zone of inhibition at 10 µg/mL in the data set on Herpes simplex-Viren [3] (setting [4]) was 10 mm. Also, in the data set on Herpes simplex-Viren [3] (setting [5]), the zone of inhibition at 20 µg/mL worked out at 12 mm. In addition, the zone of inhibition at 40 µg/mL in the data set with Herpes simplex-Viren [3] (setting [6]) turned out to be 19 mm.
Take `O=C1c2ccc(O)cc2C(=O)c2ccc(O)cc21` [Anthraflavinsäure (5), 2,6-Dihydroxyanthrachinon]: the zone of inhibition at 10 µg/mL in the data set with Herpes simplex-Viren [3] (setting [4]) came out at 9 mm. Also, the zone of inhibition at 20 µg/mL in the data set with Herpes simplex-Viren [3] (setting [5]) came to 13 mm. In the data set on Herpes simplex-Viren [3] (setting [6]), the zone of inhibition at 40 µg/mL came out at 15 mm.
The matching figures for `O=C1c2ccccc2C(=O)c2c(O)ccc(O)c21` [Chinizarin (3), 1,4-Dihydroxyanthrachinon]: 11 mm, 13 mm and 16 mm.
In the case of `O=C1c2cccc(O)c2C(=O)c2c(O)cccc21` [Chrysazin (4), 1,8-Dihydroxyanthrachinon], the zone of inhibition at 10 µg/mL with Herpes simplex-Viren [3] (setting [4]) amounted to 8 mm. For the same compound, in the data set with Herpes simplex-Viren [3] (setting [5]), the zone of inhibition at 20 µg/mL was 12 mm. For the same compound, in the data set with Herpes simplex-Viren [3] (setting [6]), the zone of inhibition at 40 µg/mL worked out at 16 mm.
